From US20070042937A1, “Inhibitors of 2-oxoglutarate dioxygenase as gamma globin inducers” (FibroGen, Inc., priority 2003, published 2007) come the findings set out here.

Molecules are shown by their SMILES. Like-named read-outs stand apart in the source and are kept apart here.

Assay [1] concerns CD34+ human bone marrow progenitor cells. Put plainly: Percent HbF-positive cells (F-cells) in CD34+ bone marrow progenitor cell cultures by flow cytometry. Conditions: for increase in F-cells over untreated cultures / increase in F-cells over untreated cultures, in combination with HU: CD34+ cells, only during Phase II, FIG. 3B; for increase in F-cells over untreated cultures, in combination with HU: in combination with 5 μM HU. A general note: Flow cytometry measures light scatter and fluorescence of single cells or particles in a stream.

Another assay deals with K562 cells. Conditions: 4 days, 20 μM, FIG. 2.
The subject of assay [2] is CD34+ human bone marrow progenitor cells. Conditions: for increase in HbF expression over untreated controls: added to both Phases I and II; for increase in HbF expression as assessed by MFI: compound alone, only during Phase II; for increase in HbF expression: CD34+ progenitor cell cultures, single assay, single cultures, FIG. 6; for increase in HbF synthesis compared to vehicle controls: added during EPO-dependent Phase II, FIG. 3A.

The test system is the same in assay [3]. Conditions: FIG. 4B; for total hemoglobin in the cultures: compound alone.
Procedure: Following phase I and II of the culture period, cells were harvested and approximately 1-2×10^5 cells were placed into round-bottom 96-well microtiter plates for each flow cytometry sample. The assay buffer for all washes and the diluent used for antibodies is PBS containing 0.1% BSA.
For HbF and Hb-specific immunolabeling, cells were pelleted by centrifugation at 1200 rpm for 2 minutes in a swinging bucket centrifuge (Beckman Coulter, Fullerton Calif.) with adaptors for microtiter plates, and the supernatant was aspirated. The cells were resuspended and lightly fixed in 100 ml of buffer containing 0.05% glutaraldehyde for 10 minutes, followed by addition of 100 ml of buffer and pelleting by centrifugation exactly as described above. The cells were washed two more times (for a total of 2.5 washes) before resuspension in buffer containing 1% Triton-X 100 for 5 min, to permeabilize the cells and enable penetration of antibodies. Following an additional 2.5 washes as described, cells were resuspended with 100 ml of buffer containing antibodies specific for HbF or the appropriate monoclonal isotype control (Caltag Laboratories, Burlingame Calif.), or total Hb and the matched polyclonal isotype control (BiosPacific, Emeryville Calif.).
The antibodies for HbF and isotype-matched control were directly conjugated to fluorochromes, so after antibody incubation the cells were washed as above before fixation in 1% formaldehyde, and stored at 4° C. in the dark until analysis. […] After an additional 2.5 washes, cells were fixed in 1% formaldehyde and stored at 4° C. in the dark until analysis.
For another assay, the system named is γ-globin. Put plainly: γ-globin mRNA expression in K562 cells by quantitative PCR, normalized to 18S rRNA. It is filed as cell-based, human. The settings on record: FIG. 1A. On the procedure:
For studies utilizing the human erythroleukemia K562 cell line (ATCC), cells were grown and cultured in complete medium (RPMI 1640, 10% fetal calf serum (FCS), 100 U/ml penicillin and 0.1 mg/ml streptomycin) in a humidified incubator at 37° C., 95% air, 5% CO2-HPIs were titrated into duplicate cultures at dosage levels spanning more than 100-fold differences in concentration, and incubated from 24 to 96 hours prior to harvesting and quantitation of F-cells and HbF levels by flow cytometry.
Each PCR run included a standard curve and water blank. In addition, a melt curve was run after completion of each PCR run to assess the specificity of the amplification. γ-globin gene expression was normalized relative to the expression level of 18S ribosomal RNA for each sample.

As to `O=C(O)CNC(=O)c1nc(Cl)c2ccccc2c1O` [HPI-1, N-((1-chloro-4-hydroxy-isoquinoline-3-carbonyl)-amino)-acetic acid], the “HbF expression (percent F-cells) when used together with HU” value in assay [1] (20 μM plus HU, FIG. 5A) is “additive”. Besides, in assay [1] (20 μM, triplicate, FIG. 5A), the “HbF expression as measured by percent F-cells, compared to vehicle control (DMSO)” value is “increased”. Moreover, the “increase in F-cells over untreated cultures” value in assay [1] (compound alone) worked out at 29%. The “increase in F-cells over untreated cultures, in combination with HU” value in assay [1] was 58%. In addition, the “increase in F-cells” value in assay [1] (CD34+ progenitor cells, 20 μM, FIG. 4A) worked out at 50%. Further, the “F-cells, co-treatment with HU or butyrate” value in assay [1] (CD34+ progenitor cells, co-treatment with HPI-1 and HU or butyrate, FIG. 4A) is listed as “additive increase”. In the assay on K562 cells, the “increase in HbF synthesis compared to negative control cultures” value was 23-52%. Further, the “HbF expression (MFI for HbF) when used together with HU” value in assay [2] (20 μM plus HU, FIG. 5B) is on record as “additive”. In addition, the “HbF expression as measured by MFI for HbF, compared to vehicle control (DMSO)” value in assay [2] (20 μM, triplicate, FIG. 5B) is reported as “increased”. The “increase in HbF expression over untreated controls” value in assay [2] (CD34+ cells, 10 μM) is 12%; in assay [2] (CD34+ cells, 20 μM), 47%. Besides, the “increase in HbF expression as assessed by MFI” value in assay [2] (CD34+ cells) came to 36%. Moreover, the “total hemoglobin, co-treatment with HU or butyrate” value in assay [3] (co-treatment with HPI-1 and HU or butyrate) is recorded as “no significant change”. Besides, the “total hemoglobin in the cultures” value in assay [3] was “did not cause a general increase”.
For the compound `O=C(O)CNC(=O)c1ncc2cc(Br)ccc2c1O` [HPI-2, [(7-Bromo-4-hydroxy-isoquinoline-3-carbonyl)-amino]-acetic acid], the “increase in F-cells over untreated cultures” value in assay [1] (compound alone) is given as 12%. Also, in assay [1], the “increase in F-cells over untreated cultures, in combination with HU” value is recorded as 29%. Besides, in the assay on K562 cells, the “increase in HbF synthesis compared to negative control cultures” value was determined as 77%. The “increase in HbF expression over controls” value in assay [2] (CD34+ cells, added during both phases, concentration not given) is 40%. Further, the “increase in HbF expression as assessed by MFI” value in assay [2] (CD34+ cells) came out at 5%. In addition, the “increase in HbF expression” value in assay [2] is “about 10%”.
For `COc1ccc2c(O)c(C(=O)NCC(=O)O)nc(Cl)c2c1` [HPI-3, [(1-Chloro-4-hydroxy-7-methoxy-isoquinoline-3-carbonyl)-amino]-acetic acid], the “increase in HbF expression” value in assay [2] is on record as “about 10%”.
The same measure, in the same setting: the value for `O=C(O)CNC(=O)c1nc2cc(Cl)ccc2cc1O` [HPI-4, [(7-Chloro-3-hydroxy-quinoline-2-carbonyl)-amino]-acetic acid] was 56%.
For `CC(C)Oc1ccc2nc(C(=O)NCC(=O)O)c(O)cc2c1` [HPI-5, [(3-Hydroxy-6-isopropoxy-quinoline-2-carbonyl)-amino]-acetic acid], the “increase in HbF expression” value in assay [2] is 75%.
As to `O=C(O)CNC(=O)c1ncc2cc(Sc3ccccc3)ccc2c1O` [HPI-6, [(4-Hydroxy-7-phenylsulfanyl-isoquinoline-3-carbonyl)-amino}-acetic acid], the “expression of the gene encoding γ-globin” value in the assay on γ-globin (3 days, 0, 3, 4.5, 10, 12.5 or 20 μM) is given as “increased in a dose-dependant manner”. Further, the “γ-globin expression with further addition of hydroxyurea” value in the assay on γ-globin (3 days, plus 100 μM HU, especially at lower concentrations) is reported as “augmented”.
`NC(=O)NO` [HU, hydroxyurea, reference compound]: the F-cells entry in assay [1] (CD34+ progenitor cells, compound alone, FIG. 4A) is reported as “increases”. Besides, the “increase in HbF synthesis compared to vehicle controls” value in assay [2] (CD34+ cells) stood at 50%. In addition, in assay [3], the “total hemoglobin in the cultures” value is recorded as “increases”.
With `CCCC(=O)O` [butyrate, reference compound], in assay [2] (CD34+ cells), the “increase in HbF synthesis compared to vehicle controls” value came out at 85%.
